According to patent US8871934B2, “Fluorene compound and pharmaceutical use thereof” (Japan Tobacco Inc., priority 2008, dated 2014):
Where two headings read alike, the source gives them in different places. Values belong to the compound of their own block, whether it stands above or below them.

Target: human PDHK2 (hPDHK2) (Homo sapiens (Human), UniProt Q15119)
Experiment: Inhibitory action of PDHK activity in vitro (kinase reaction, residual PDH activity measured)
Format: biochemical
[1] = PDHK inhibitory activity, class symbol of IC50
[2] = read-out: PDHK inhibitory activity IC50
[3] = PDHK inhibitory activity (class symbol)

SMILES: CCc1cccc2c1-c1ccccc1C2(O)C(F)(F)F (stereo not shown) [compound 25]
IC50 [1]: > 1000 nM
IC50 [2]: 30900 nM

SMILES: CCNC(=O)c1ccc2c(c1)C(O)(C(F)(F)F)c1ccccc1-2 (stereo not shown) [compound 315]
IC50 [1]: > 1000 nM
IC50 [2]: 6370 nM

SMILES: CC(C)n1cc(-c2cccc3c2-c2ccccc2C3(O)C(F)(F)F)cn1 (stereo not shown) [compound 465]
IC50 [1]: < 100 nM
IC50 [2]: 61 nM

SMILES: OC1(C(F)(F)F)c2ccccc2-c2ccc(-c3cc(Cl)cc(Cl)c3)cc21 (stereo not shown) [compound 266]
IC50 [1]: > 1000 nM
IC50 [2]: 1560 nM

SMILES: CNC(=O)C1CCCN1C(=O)c1ccc2c(c1)C(O)(C(F)(F)F)c1ccccc1-2 (stereo not shown) [compound 177]
IC50 [1]: > 1000 nM
IC50 [2]: 9190 nM

SMILES: CC(=O)Nc1ccc2c(c1)-c1ccccc1C2(O)C(F)(F)F (stereo not shown) [compound 28]
IC50 [1]: > 1000 nM
IC50 [2]: 2820 nM

SMILES: CCC(=O)N1CCN(c2ccc3c(c2)C(O)(C(F)(F)F)c2ccccc2-3)CC1 (stereo not shown) [compound 207]
IC50 [1]: 100 to 1000 nM
IC50 [2]: 998 nM

SMILES: CCn1cc(-c2cc(C(N)=O)c3c(c2)C(O)(C(F)(F)F)c2ccccc2-3)cn1 (single isomer, unassigned; (-)) [compound 630, (−)-2-(1-ethyl-1H-pyrazol-4-yl)-9-hydroxy-9-trifluoromethyl-9H-fluorene-4-carboxylic acid amide]
IC50 [3]: < 100 nM
IC50 [2]: 20 nM

SMILES: O=C(O)C1CCN1C(=O)c1ccc2c(c1)C(O)(C(F)(F)F)c1ccccc1-2 (stereo not shown) [compound 314]
IC50 [1]: > 1000 nM
IC50 [2]: > 10000 nM

SMILES: OC1(C(F)(F)F)c2ccccc2-c2c(Br)cc(Cl)cc21 (stereo not shown) [compound 272]
IC50 [1]: 100 to 1000 nM
IC50 [2]: 342 nM

SMILES: Cc1cc(C(=O)N2CCC2)cc2c1-c1ccccc1C2(O)C(F)(F)F (stereo not shown) [compound 91]
IC50 [1]: < 100 nM
IC50 [2]: 72 nM

SMILES: COCc1ccc2c(c1)C(O)(C(F)(F)F)c1ccccc1-2 (stereo not shown) [compound 75]
IC50 [1]: > 1000 nM
IC50 [2]: 6780 nM

SMILES: Cc1ccccc1-c1ccc2c(c1)C(O)(C(F)(F)F)c1ccccc1-2 (stereo not shown) [compound 151]
IC50 [1]: > 1000 nM
IC50 [2]: 5210 nM

SMILES: CC(O)c1cc(-c2cnn(C)c2)cc2c1-c1ccccc1C2(O)C(F)(F)F (stereo not shown) [compound 598]
IC50 [1]: 100 to 1000 nM
IC50 [2]: 653 nM

SMILES: Cn1cc(-c2cc(OCC(O)CO)cc3c2-c2ccccc2C3(O)C(F)(F)F)cn1 (stereo not shown) [compound 571]
IC50 [1]: < 100 nM
IC50 [2]: 50 nM

SMILES: CN1CCN(c2ccc3c(c2)C(O)(C(F)(F)F)c2ccccc2-3)CC1 (stereo not shown) [compound 162]
IC50 [1]: > 1000 nM
IC50 [2]: 2890 nM

SMILES: Cn1cc(-c2cc(OCCCO)cc3c2-c2ccccc2C3(O)C(F)(F)F)cn1 (stereo not shown) [compound 453]
IC50 [1]: < 100 nM
IC50 [2]: 28 nM

SMILES: O=C(O)CCCOc1cc(-c2cncnc2)c2c(c1)C(O)(C(F)(F)F)c1ccccc1-2 (single isomer, unassigned) [compound 604]
IC50 [3]: < 100 nM
IC50 [2]: 35 nM

SMILES: Cn1cc(-c2cc(CO)c3c(c2)C(O)(C(F)(F)F)c2ccccc2-3)cn1 (stereo not shown) [compound 570]
IC50 [1]: 100 to 1000 nM
IC50 [2]: 110 nM

SMILES: Cc1ccc2c(c1)C(O)(C(F)(F)F)c1ccccc1-2 (stereo not shown) [compound 3]
IC50 [1]: > 1000 nM
IC50 [2]: 1570 nM

SMILES: O=C(c1ccc2c(c1)C(O)(C(F)(F)F)c1ccccc1-2)N1CC(CO)C1 (stereo not shown) [compound 87]
IC50 [1]: 100 to 1000 nM
IC50 [2]: 669 nM

SMILES: O=C(O)CCCOc1cc(-c2cncnc2)c2c(c1)C(O)(C(F)(F)F)c1ccccc1-2 (stereo not shown) [compound 510]
IC50 [1]: < 100 nM
IC50 [2]: 62 nM

SMILES: COC(=O)c1cc(-c2cnn(C)c2)c2c(c1)C(O)(C(F)(F)F)c1ccccc1-2 (stereo not shown) [compound 343]
IC50 [1]: < 100 nM
IC50 [2]: 53 nM

SMILES: Cn1cc(-c2cc(CO)cc3c2-c2ccccc2C3(O)C(F)(F)F)cn1 (stereo not shown) [compound 557]
IC50 [1]: < 100 nM
IC50 [2]: 77 nM

SMILES: OCCCCOc1cc(CO)c2c(c1)C(O)(C(F)(F)F)c1ccccc1-2 (stereo not shown) [compound 611]
IC50 [3]: 100 to 1000 nM
IC50 [2]: 329 nM

SMILES: Cc1cc(C(=O)N2CC(OCC(N)=O)C2)cc2c1-c1ccccc1C2(O)C(F)(F)F (stereo not shown) [compound 352]
IC50 [1]: 100 to 1000 nM
IC50 [2]: 109 nM

SMILES: OC1(C(F)(F)F)c2ccccc2-c2ccc(OC3CCCCC3)cc21 (stereo not shown) [compound 260]
IC50 [1]: > 1000 nM
IC50 [2]: 2810 nM

SMILES: OC1(C(F)(F)F)c2ccccc2-c2c(C3CC3)cccc21 (stereo not shown) [compound 268]
IC50 [1]: > 1000 nM
IC50 [2]: > 10000 nM

SMILES: O=C(O)CCn1cc(-c2cc(Cl)c3c(c2)C(O)(C(F)(F)F)c2ccccc2-3)cn1 (stereo not shown) [compound 517]
IC50 [1]: < 100 nM
IC50 [2]: 57 nM

SMILES: COC(=O)COc1cc(Cl)c2c(c1)C(O)(C(F)(F)F)c1ccccc1-2 (stereo not shown) [compound 480]
IC50 [1]: 100 to 1000 nM
IC50 [2]: 553 nM

SMILES: O=S1(=O)CCCN1CCOc1ccc2c(c1)C(O)(C(F)(F)F)c1ccccc1-2 (stereo not shown) [compound 468]
IC50 [1]: 100 to 1000 nM
IC50 [2]: 327 nM

SMILES: O=C(O)CCCCOc1ccc2c(c1)C(O)(C(F)(F)F)c1ccccc1-2 (stereo not shown) [compound 295]
IC50 [1]: 100 to 1000 nM
IC50 [2]: 861 nM

SMILES: O=C(O)COc1ccc2c(c1)C(O)(C(F)(F)F)c1ccccc1-2 (stereo not shown) [compound 287]
IC50 [1]: > 1000 nM
IC50 [2]: > 10000 nM

SMILES: OC1(C(F)(F)F)c2ccccc2-c2c(-c3cnn(C45CC6CC(CC(C6)C4)C5)c3)cccc21 (stereo not shown) [compound 522]
IC50 [1]: < 100 nM
IC50 [2]: 61 nM

SMILES: Cn1cc(-c2cc(OCC(=O)O)cc3c2-c2ccccc2C3(O)C(F)(F)F)cn1 (stereo not shown) [compound 433]
IC50 [1]: 100 to 1000 nM
IC50 [2]: 388 nM

SMILES: CCNC(=O)c1ccc2c(c1)-c1ccccc1C2(O)C(F)(F)F (stereo not shown) [compound 72]
IC50 [1]: > 1000 nM
IC50 [2]: 4420 nM

SMILES: CNc1cccc2c1-c1ccccc1C2(O)C(F)(F)F (stereo not shown) [compound 85]
IC50 [1]: > 1000 nM
IC50 [2]: 23100 nM

SMILES: Cn1cc(-c2cc(C(=O)N3CCC(O)C3)cc3c2-c2ccccc2C3(O)C(F)(F)F)cn1 (stereo not shown) [compound 376]
IC50 [1]: < 100 nM
IC50 [2]: 85 nM

IC50 (PDHK inhibitory activity IC50 (μmol/L)): 69 nM
IC50 [1]: < 100 nM
SMILES: Cc1cc(-c2cnn(CC(=O)O)c2)c2c(c1)[C@@](O)(C(F)(F)F)c1ccccc1-2 (stereo in doubt) [compound 550]

SMILES: CCOc1cc(-c2cnn(CCCC(=O)O)c2)c2c(c1)C(O)(C(F)(F)F)c1ccccc1-2 (single isomer, unassigned) [compound 582]
IC50 [1]: < 100 nM
IC50 [2]: 21 nM

SMILES: CCCOC(=O)c1cccc2c1-c1ccccc1C2(O)C(F)(F)F (stereo not shown) [compound 59]
IC50 [1]: 100 to 1000 nM
IC50 [2]: 772 nM

SMILES: O=C(O)CCCOc1cc(-c2cn[nH]c2)c2c(c1)C(O)(C(F)(F)F)c1ccccc1-2 (stereo not shown) [compound 498]
IC50 [1]: < 100 nM
IC50 [2]: 47 nM

SMILES: CN(C)c1ccc2c(c1)C(O)(C(F)(F)F)c1ccccc1-2 (stereo not shown) [compound 80]
IC50 [1]: > 1000 nM
IC50 [2]: 8240 nM

SMILES: Cc1ncc(-c2cccc3c2-c2ccccc2C3(O)C(F)(F)F)o1 (stereo not shown) [compound 275]
IC50 [1]: 100 to 1000 nM
IC50 [2]: 278 nM

SMILES: OC1(C(F)(F)F)c2ccccc2-c2c(Br)cccc21 (stereo not shown) [compound 113]
IC50 [1]: > 1000 nM
IC50 [2]: 1110 nM

SMILES: CNC(=O)COc1cc(Br)c2c(c1)C(O)(C(F)(F)F)c1ccccc1-2 (stereo not shown) [compound 438]
IC50 [1]: 100 to 1000 nM
IC50 [2]: 112 nM

SMILES: O=C(O)C1CCN(C(=O)c2ccc3c(c2)C(O)(C(F)(F)F)c2ccccc2-3)C1 (stereo not shown) [compound 217]
IC50 [1]: > 1000 nM
IC50 [2]: 5330 nM

SMILES: CN(C)C(=O)c1ccccc1-c1ccc2c(c1)C(O)(C(F)(F)F)c1ccccc1-2 (stereo not shown) [compound 184]
IC50 [1]: > 1000 nM
IC50 [2]: > 10000 nM

SMILES: CC(C)n1cc(-c2ccc3c(c2)C(O)(C(F)(F)F)c2cccc(CO)c2-3)cn1 (stereo not shown) [compound 593]
IC50 (class symbol of IC50, read-out: PDHK inhibitory activity): > 1000 nM
IC50 [2]: > 1000 nM

SMILES: Cn1cc(-c2cc(OCC(=O)N3CCC(CO)CC3)cc3c2-c2ccccc2C3(O)C(F)(F)F)cn1 (stereo not shown) [compound 440]
IC50 [1]: < 100 nM
IC50 [2]: 32 nM

SMILES: COc1cnc2c(c1)C(O)(C(F)(F)F)c1ccccc1-2 (stereo not shown) [compound 378]
IC50 [1]: 100 to 1000 nM
IC50 [2]: 703 nM

SMILES: O=C(O)Cn1cc(-c2cc(Cl)c3c(c2)C(O)(C(F)(F)F)c2ccccc2-3)cn1 (stereo not shown) [compound 516]
IC50 [1]: 100 to 1000 nM
IC50 [2]: 110 nM

SMILES: O=C(O)CCOc1ccc2c(c1)C(O)(C(F)(F)F)c1ccccc1-2 (stereo not shown) [compound 291]
IC50 [1]: > 1000 nM
IC50 [2]: 5830 nM

SMILES: NC(=O)Cn1cc(-c2cc(OCCC34CC5CC(CC(C5)C3)C4)cc3c2-c2ccccc2C3(O)C(F)(F)F)cn1 (stereo not shown) [compound 508]
IC50 [1]: < 100 nM
IC50 [2]: 48 nM

SMILES: CC(C)(C)Cn1cc(-c2cc(C(N)=O)c3c(c2)C(O)(C(F)(F)F)c2ccccc2-3)cn1 (single isomer, unassigned) [compound 659, 2-[1-(2,2-dimethyl-propyl)-1H-pyrazol-4-yl]-9-hydroxy-9-trifluoromethyl-9H-fluorene-4-carboxylic acid amide]
IC50 [3]: < 100 nM
IC50 [2]: 16 nM

SMILES: NC(=O)c1cc(-c2cnn(CC3CCCCC3)c2)cc2c1-c1ccccc1C2(O)C(F)(F)F (stereo not shown) [compound 662]
IC50 [3]: < 100 nM
IC50 [2]: 34 nM

SMILES: COC(=O)c1cccc2c1-c1cc(F)ccc1C2(O)C(F)(F)F (stereo not shown) [compound 220]
IC50 [1]: 100 to 1000 nM
IC50 [2]: 488 nM

SMILES: OC1(C(F)(F)F)c2ccccc2-c2ncc(Cl)cc21 (stereo not shown) [compound 36]
IC50 [1]: 100 to 1000 nM
IC50 [2]: 626 nM

SMILES: Oc1cccc2c1-c1ccccc1C2(O)C(F)(F)F (stereo not shown) [compound 63]
IC50 [1]: > 1000 nM
IC50 [2]: 8480 nM

SMILES: CC(=O)Nc1cccc2c1-c1ccccc1C2(O)C(F)(F)F (stereo not shown) [compound 19]
IC50 [1]: > 1000 nM
IC50 [2]: > 100000 nM

SMILES: OC1(C(F)(F)F)c2ccccc2-c2ccc(Cc3ccccc3)cc21 (stereo not shown) [compound 317]
IC50 [1]: > 1000 nM
IC50 [2]: 2310 nM

SMILES: O=C(O)CCCOc1ccc2c(c1)C(O)(C(F)(F)F)c1ccccc1-2 (stereo not shown) [compound 258]
IC50 [1]: > 1000 nM
IC50 [2]: 2620 nM

SMILES: CC(=O)N(C)C[C@H](O)COc1cc(-c2cnn(C)c2)c2c(c1)C(O)(C(F)(F)F)c1ccccc1-2 (stereo partly shown) [compound 500]
IC50 [1]: < 100 nM
IC50 [2]: 31 nM

SMILES: NC(=O)Cn1cc(-c2cc(Cl)cc3c2-c2ccccc2C3(O)C(F)(F)F)cn1 (stereo not shown) [compound 506]
IC50 [1]: < 100 nM
IC50 [2]: 30 nM

SMILES: Cc1cc(-c2cnn(CCCC(=O)O)c2)c2c(c1)C(O)(C(F)(F)F)c1ccccc1-2 (single isomer, unassigned; (+)) [compound 539, (+)-4-[4-(9-hydroxy-2-methyl-9-trifluoromethyl-9H-fluoren-4-yl)-pyrazol-1-yl]-butyric acid]
IC50 [1]: < 100 nM
IC50 [2]: 27 nM
